Literature values, collected in patent US20050009776A1, “Method of treating atrial fibrillation or atrial flutter” (Aderis Pharmaceuticals, Inc., priority 2003, published 2005).

Conditions: cited from earlier work

Nc1ncnc2c1ncn2[C@@H]1O[C@H](CO)[C@@H](O)[C@H]1O [adenosine]
half-life: 10 s
